# Laboratory results reported in US9637473B2, “Acrylamide derivatives as antimalarial agents” (priority 2013, dated 2017).
# pIC50: −log10 of the molar value.
# Tested on: P. Falciparum NF54
# Test: Plasmodium falciparum in vitro assay ([3H]-hypoxanthine incorporation)
# Format: cell-based
# Conditions: Plasmodium falciparum, Erythrocyte, P. Falciparum NF54, erythrocytic stages in human red blood cells, 50% human serum
# Experimental: In Vitro Antimalarial Activity: Plasmodium falciparum In Vitro Assay: In vitro activity against erythrocytic stages of P. Falciparum in human red blood cells is determined using a [^3H]-hypoxanthine incorporation assay. One strain sensitive to all drugs (P. […] After 48 hours, [^3H]-hypoxanthine (0.5 μCi) is added to each well of a plate. The plates are incubated for a further 24 hours under the same conditions then harvested with a Betaplate cell harvester (Wallac) and washed with distilled water. The dried filters are inserted into a plastic foil with 10 mL of scintillation fluid and counted in a Betaplate liquid scintillation counter. IC50 values are calculated from sigmoidal inhibition curves using Microsoft Excel.
row,SMILES,pIC50
1,"CN(c1ccncc1)c1ccc(CN(C(=O)/C=C/c2ccc(C(F)(F)F)cc2)C2CCN(CC3CC4C=CC3C4)CC2)cc1 (centres unmarked) [Example 10, (E)-N-(1′-Bicyclo[2.2.1]hept-5-en-2-ylmethyl-piperidin-4-yl)-N-[4-(methyl-pyridin-4-yl-amino)-benzyl]-3-(4-trifluoromethyl-phenyl)-acrylamide]",7.85
2,"CN(c1ccncc1)c1ccc(CN(C(=O)/C=C/c2ccc(C(F)(F)F)cc2)C2CCN(Cc3ccc(Cl)c(Cl)c3)CC2)cc1 [Example 11, (E)-N-[1-(3,4-Dichloro-benzyl)-piperidin-4-yl]-N-[4-(methyl-pyridin-4-yl-amino)-benzyl]-3-(4-trifluoromethyl-phenyl)-acrylamide]",7.08
3,"Cc1ccc(CN2CCC(N(Cc3ccc(N(C)c4ccncc4)cc3)C(=O)/C=C/c3ccc(C(F)(F)F)cc3)CC2)cc1 [Example 12, (E)-N-[1-(4-Methyl-benzyl)-piperidin-4-yl]-N-[4-(methyl-pyridin-4-yl-amino)-benzyl]-3-(4-trifluoromethyl-phenyl)-acrylamide]",7.54
4,"COc1ccc(CN2CCC(N(Cc3ccc(N(C)c4ccncc4)cc3)C(=O)/C=C/c3ccc(C(F)(F)F)cc3)CC2)cc1 [Example 13, (E)-N-[1-(4-Methoxy-benzyl)-piperidin-4-yl]-N-[4-(methyl-pyridin-4-yl-amino)-benzyl]-3-(4-trifluoromethyl-phenyl)-acrylamide]",7.30
5,"CN(c1ccncc1)c1ccc(CN(C(=O)/C=C/c2ccc(C(F)(F)F)cc2)C2CCN(CCc3ccccc3)CC2)cc1 [Example 14, (E)-N-[4-(Methyl-pyridin-4-yl-amino)-benzyl]-N-(1-phenethyl-piperidin-4-yl)-3-(4-trifluoromethyl-phenyl)-acrylamide]",7.26
6,"CN(c1ccncc1)c1ccc(CN(C(=O)/C=C/c2ccc(C(F)(F)F)cc2)C2CCN(CC(c3ccccc3)c3ccccc3)CC2)cc1 [Example 15, (E)-N-[1-(2,2-Diphenyl-ethyl)-piperidin-4-yl]-N-[4-(methyl-pyridin-4-yl-amino)-benzyl]-3-(4-trifluoromethyl-phenyl)-acrylamide]",7.39
7,"CN(c1ccncc1)c1ccc(CN(C(=O)/C=C/c2ccc(C(F)(F)F)cc2)C2CCN(CCC(F)(F)F)CC2)cc1 [Example 16, (E)-N-[4-(Methyl-pyridin-4-yl-amino)-benzyl]-3-(4-trifluoromethyl-phenyl)-N-[1-(3,3,3-trifluoro-propyl)-piperidin-4-yl]-acrylamide]",6.81
8,"CN(c1ccncc1)c1ccc(CN(C(=O)/C=C/c2ccc(C(F)(F)F)cc2)C2CCN(Cc3ccnn3C)CC2)cc1 [Example 17, (E)-N-[1-(2-Methyl-2H-pyrazol-3-ylmethyl)-piperidin-4-yl]-N-[4-(methyl-pyridin-4-yl-amino)-benzyl]-3-(4-trifluoromethyl-phenyl)-acrylamide]",6.74
9,"CN(c1ccncc1)c1ccc(CN(C(=O)/C=C/c2ccc(C(F)(F)F)cc2)C2CCN(Cc3cnn(-c4ccccc4)c3)CC2)cc1 [Example 18, (E)-N-[4-(Methyl-pyridin-4-yl-amino)-benzyl]-N-[1-(1-phenyl-1H-pyrazol-4-ylmethyl)-piperidin-4-yl]-3-(4-trifluoromethyl-phenyl)-acrylamide]",7.29
10,"CN(c1ccncc1)c1ccc(CN(C(=O)/C=C/c2ccc(C(F)(F)F)cc2)C2CCN(Cc3cncn3C)CC2)cc1 [Example 19, (E)-N-[1-(3-Methyl-3H-imidazol-4-ylmethyl)-piperidin-4-yl]-N-[4-(methyl-pyridin-4-yl-amino)-benzyl]-3-(4-trifluoromethyl-phenyl)-acrylamide]",7.27
11,"CN(c1ccncc1)c1ccc(CN(C(=O)/C=C/c2ccc(C(F)(F)F)cc2)C2CCN(Cc3ncc4ccccn34)CC2)cc1 [Example 20, (E)-N-(1-Imidazo[1,5-a]pyridin-3-ylmethyl-piperidin-4-yl)-N-[4-(methyl-pyridin-4-yl-amino)-benzyl]-3-(4-trifluoromethyl-phenyl)-acrylamide]",6.59
12,"CN(c1ccncc1)c1ccc(CN(C(=O)/C=C/c2ccc(C(F)(F)F)cc2)C2CCN(Cc3nc4ccccc4n3C)CC2)cc1 [Example 21, (E)-N-[1-(1-Methyl-1H-benzoimidazol-2-ylmethyl)-piperidin-4-yl]-N-[4-(methyl-pyridin-4-yl-amino)-benzyl]-3-(4-trifluoromethyl-phenyl)-acrylamide]",6.45
13,"CN(c1ccncc1)c1ccc(CN(C(=O)/C=C/c2ccc(C(F)(F)F)cc2)C2CCN(Cc3ccccn3)CC2)cc1 [Example 22, (E)-N-[4-(Methyl-pyridin-4-yl-amino)-benzyl]-N-(1-pyridin-2-ylmethyl-piperidin-4-yl)-3-(4-trifluoromethyl-phenyl)-acrylamide]",6.75
14,"CN(c1ccncc1)c1ccc(CN(C(=O)/C=C/c2ccc(C(F)(F)F)cc2)C2CCN(Cc3cccnc3)CC2)cc1 [Example 23, (E)-N-[4-(Methyl-pyridin-4-yl-amino)-benzyl]-N-(1-pyridin-3-ylmethyl-piperidin-4-yl)-3-(4-trifluoromethyl-phenyl)-acrylamide]",6.91
15,"Cc1ncc(CN2CCC(N(Cc3ccc(N(C)c4ccncc4)cc3)C(=O)/C=C/c3ccc(C(F)(F)F)cc3)CC2)cn1 [Example 24, (E)-N-[4-(Methyl-pyridin-4-yl-amino)-benzyl]-N-[1-(2-methyl-pyrimidin-5-ylmethyl)-piperidin-4-yl]-3-(4-trifluoromethyl-phenyl)-acrylamide]",6.48
16,"CN(c1ccncc1)c1ccc(CN(C(=O)/C=C/c2ccc(C(F)(F)F)cc2)C2CCN(Cc3ccn4ccnc4c3)CC2)cc1 [Example 25, (E)-N-(1-Imidazo[1,2-a]pyridin-7-ylmethyl-piperidin-4-yl)-N-[4-(methyl-pyridin-4-yl-amino)-benzyl]-3-(4-trifluoromethyl-phenyl)-acrylamide]",7.39
17,"CN1CCC(N2CCC(N(Cc3ccc(N(C)c4ccncc4)cc3)C(=O)/C=C/c3ccc(C(F)(F)F)cc3)CC2)CC1 [Example 26, (E)-N-(1′-Methyl-[1,4′]bipiperidinyl-4-yl)-N-[4-(methyl-pyridin-4-yl-amino)-benzyl]-3-(4-trifluoromethyl-phenyl)-acrylamide]",7.85
18,"CN(c1ccncc1)c1ccc(CN(C(=O)/C=C/c2ccc(C(F)(F)F)cc2)C2CCN(Cc3ccc(C#N)cc3)CC2)cc1 [Example 27, (E)-N-[1-(4-Cyano-benzyl)-piperidin-4-yl]-N-[4-(methyl-pyridin-4-yl-amino)-benzyl]-3-(4-trifluoromethyl-phenyl)-acrylamide]",7.19
19,"CC(=O)n1cc(CN2CCC(N(Cc3ccc(N(C)c4ccncc4)cc3)C(=O)/C=C/c3ccc(C(F)(F)F)cc3)CC2)c2ccccc21 [Example 28, (E)-N-[1-(1-Acetyl-1H-indol-3-ylmethyl)-piperidin-4-yl]-N-[4-(methyl-pyridin-4-yl-amino)-benzyl]-3-(4-trifluoromethyl-phenyl)-acrylamide]",7.36
20,"CN(c1ccncc1)c1ccc(CN(C(=O)/C=C/c2ccc(C(F)(F)F)cc2)C2CCN(Cc3ncccn3)CC2)cc1 [Example 29, (E)-N-[4-(Methyl-pyridin-4-yl-amino)-benzyl]-N-(1-pyrimidin-2-ylmethyl-piperidin-4-yl)-3-(4-trifluoromethyl-phenyl)-acrylamide]",6.53
